Reference: ChEMBL document CHEMBL3217456 (Medchemcomm, 2014)
The source made the active and inactive calls. No cut-off for these calls is given here.

How the values were obtained:
Histamine H3 receptor [1] = molecular target: T1, Histamine H3 receptor (Homo sapiens, UniProt Q9Y5N1); experiment: Antagonist activity at human recombinant histamine H3 receptor expressed in Sf9 cells coexpressing Galphai2,Gbeta1gamma2 and RGS4 assessed as inhibition of histamine-induced […] hydrolysis preincubated for 2 mins before [gamma32P]GTP addition measured after 20 mins by steady-state GTPase activity assay; type: functional
Histamine H1 receptor = Histamine H1 receptor (Cavia porcellus, UniProt P31389); experiment: Antagonist activity at guinea pig ileum histamine H1 receptor assessed as inhibition of histamine-induced response after 10 to 15 mins; type: tissue-based; settings: read-out: pA2 (converted)
Histamine H2 receptor [2] = molecular target: T2, Histamine H2 receptor (Cavia porcellus, UniProt P47747); experiment: Agonist activity at guinea pig histamine H2 receptor assessed as potentiation of histamine-induced response at after 30 mins
[3] = molecular target: Histamine H1 receptor (Homo sapiens) (UniProt P35367); experiment: Antagonist activity at human recombinant histamine H1 receptor expressed in Sf9 cells coexpressing RGS4 assessed as inhibition of histamine-induced […] hydrolysis preincubated for 2 mins before [gamma32P]GTP addition measured after 20 mins by steady-state GTPase activity assay; type: functional
Histamine H2 receptor [4] = molecular target: T3, Histamine H2 receptor (Homo sapiens, UniProt P25021); experiment: Intrinsic activity at human recombinant histamine H2 receptor-Gsalphas fusion protein expressed in Sf9 cells preincubated for 2 mins before [gamma32P]GTP addition measured after 20 mins by steady-state GTPase activity assay relative to histamine
[5] = molecular target: Histamine H2 receptor (Cavia porcellus) (UniProt P47747); experiment: Agonist activity at guinea pig histamine H2 receptor assessed as potentiation of histamine-induced response after 30 mins relative to histamine
Histamine H2 receptor [6] = molecular target: T3, Histamine H2 receptor; experiment: Agonist activity at human recombinant histamine H2 receptor-Gsalphas fusion protein expressed in Sf9 cells preincubated for 2 mins before [gamma32P]GTP addition measured after 20 mins by steady-state GTPase activity assay
Histamine H3 receptor [7] = molecular target: T1, Histamine H3 receptor; experiment: Intrinsic activity at human recombinant histamine H3 receptor expressed in Sf9 cells coexpressing Galphai2,Gbeta1gamma2 and RGS4 preincubated for 2 mins before [gamma32P]GTP addition measured after 20 mins by steady-state GTPase activity assay relative to histamine
Histamine H4 receptor [8] = molecular target: T4, Histamine H4 receptor (Homo sapiens, UniProt Q9H3N8); experiment: Agonist activity at human recombinant histamine H4 receptor-RGS19 fusion protein expressed in Sf9 cells coexpressing Galphai2,Gbeta1gamma2 preincubated for 2 mins before [gamma32P]GTP addition measured after 20 mins by steady-state GTPase activity assay
Histamine H2 receptor [9] = molecular target: T2, Histamine H2 receptor; experiment: (§1) Antagonist activity at guinea pig histamine H2 receptor assessed as inhibition of histamine-induced response after 30 mins; settings: read-out: pA2 (converted)
Histamine H3 receptor [10] = molecular target: T1, Histamine H3 receptor; experiment: Intrinsic activity at human recombinant histamine H3 receptor expressed in Sf9 cells coexpressing Galphai2,Gbeta1gamma2 and RGS4 assessed as [35S]GTPgammaS binding at 10 uM after 90 mins by liquid scintillation counting relative to histamine; type: functional
Histamine H4 receptor [11] = molecular target: T4, Histamine H4 receptor; experiment: Agonist activity at human recombinant histamine H4 receptor-RGS19 fusion protein expressed in Sf9 cells coexpressing Galphai2,Gbeta1gamma2 assessed as [35S]GTPgammaS binding after 90 mins by liquid scintillation counting; type: functional
[12] = molecular target: Histamine H1 receptor (Homo sapiens) (UniProt P35367); experiment: Intrinsic activity at human recombinant histamine H1 receptor expressed in Sf9 cells coexpressing RGS4 preincubated for 2 mins before [gamma32P]GTP addition measured after 20 mins by steady-state GTPase activity assay relative to histamine
Histamine H2 receptor [13] = molecular target: T3, Histamine H2 receptor; experiment: Agonist activity at human recombinant histamine H2 receptor-Gsalphas fusion protein expressed in Sf9 cells assessed as [35S]GTPgammaS binding after 90 mins by liquid scintillation counting; type: functional
Histamine H3 receptor [14] = molecular target: T1, Histamine H3 receptor; experiment: Antagonist activity at human recombinant histamine H3 receptor expressed in Sf9 cells coexpressing Galphai2,Gbeta1gamma2 and RGS4 assessed as inhibition of histamine-induced [35S]GTPgammaS binding after 90 mins by liquid scintillation counting; type: functional
Histamine H2 receptor [15] = molecular target: T3, Histamine H2 receptor; experiment: (§2) Antagonist activity at human recombinant histamine H2 receptor-Gsalphas fusion protein expressed in Sf9 cells assessed as inhibition of histamine-induced […] hydrolysis preincubated for 2 mins before [gamma32P]GTP addition measured after 20 mins by steady-state GTPase activity assay; type: functional
Histamine H4 receptor [16] = molecular target: T4, Histamine H4 receptor; experiment: as §2, with “H4 receptor-RGS19” for “H2 receptor-Gsalphas”, “cells coexpressing Galphai2,Gbeta1gamma2” for “cells”; type: functional
[17] = molecular target: Histamine H2 receptor (Cavia porcellus) (UniProt P47747); experiment: Antagonist activity at guinea pig histamine H2 receptor assessed as reduction of histamine-induced maximal response after 30 mins
[18] = molecular target: Histamine H2 receptor (Cavia porcellus) (UniProt P47747); experiment: as §1
Histamine H2 receptor [19] = molecular target: T2, Histamine H2 receptor; experiment: Agonist activity at guinea pig atrium histamine H2 receptor assessed as potentiation of histamine-induced response after 30 mins; set-up: species or system Cardiac atrium
Histamine H2 receptor [20] = molecular target: T3, Histamine H2 receptor; experiment: Intrinsic activity at human recombinant histamine H2 receptor-Gsalphas fusion protein expressed in Sf9 cells assessed as [35S]GTPgammaS binding at 10 uM after 90 mins by liquid scintillation counting relative to histamine; type: functional
Histamine H4 receptor [21] = molecular target: T4, Histamine H4 receptor; experiment: Antagonist activity at human recombinant histamine H4 receptor-RGS19 fusion protein expressed in Sf9 cells coexpressing Galphai2,Gbeta1gamma2 assessed as inhibition of histamine-induced [35S]GTPgammaS binding after 90 mins by liquid scintillation counting; type: functional
Histamine H4 receptor [22] = molecular target: T4, Histamine H4 receptor; experiment: Intrinsic activity at human recombinant histamine H4 receptor-RGS19 fusion protein expressed in Sf9 cells coexpressing Galphai2,Gbeta1gamma2 assessed as [35S]GTPgammaS binding at 10 uM after 90 mins by liquid scintillation counting relative to histamine; type: functional
[23] = molecular target: Histamine H1 receptor (Homo sapiens) (UniProt P35367); settings: Sf9
Histamine H3 receptor [24] = molecular target: T1, Histamine H3 receptor; experiment: Agonist activity at human recombinant histamine H3 receptor expressed in Sf9 cells coexpressing Galphai2,Gbeta1gamma2 and RGS4 assessed as [35S]GTPgammaS binding after 90 mins by liquid scintillation counting; type: functional
[25] = molecular target: Histamine H2 receptor (Cavia porcellus) (UniProt P47747); experiment: Agonist activity at guinea pig histamine H2 receptor assessed as potentiation of histamine-induced response at 10 uM after 30 mins relative to histamine
[26] = molecular target: Histamine H2 receptor (Cavia porcellus) (UniProt P47747); experiment: Agonist activity at guinea pig histamine H2 receptor assessed as potentiation of histamine-induced response at 30 uM after 30 mins relative to histamine
Histamine H4 receptor [27] = molecular target: T4, Histamine H4 receptor; experiment: Intrinsic activity at human recombinant histamine H4 receptor-RGS19 fusion protein expressed in Sf9 cells coexpressing Galphai2,Gbeta1gamma2 preincubated for 2 mins before [gamma32P]GTP addition measured after 20 mins by steady-state GTPase activity assay relative to histamine

Sequence of Histamine H2 receptor (Cavia porcellus) (P47747 whole entry, the tested form may be a part): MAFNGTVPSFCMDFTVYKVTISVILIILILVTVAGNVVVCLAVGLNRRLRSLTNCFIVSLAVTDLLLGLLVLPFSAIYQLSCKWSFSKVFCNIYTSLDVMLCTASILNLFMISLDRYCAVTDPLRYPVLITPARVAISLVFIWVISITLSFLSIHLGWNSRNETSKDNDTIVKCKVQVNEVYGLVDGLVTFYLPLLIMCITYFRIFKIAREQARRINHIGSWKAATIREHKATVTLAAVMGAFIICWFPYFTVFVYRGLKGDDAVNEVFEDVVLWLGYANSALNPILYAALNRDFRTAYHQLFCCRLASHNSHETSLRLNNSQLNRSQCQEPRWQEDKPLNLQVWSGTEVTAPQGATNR
T2 sequence (P47747 whole entry): as the sequence (P47747 whole entry, the tested form may be a part) above
T1 sequence (Q9Y5N1 whole entry): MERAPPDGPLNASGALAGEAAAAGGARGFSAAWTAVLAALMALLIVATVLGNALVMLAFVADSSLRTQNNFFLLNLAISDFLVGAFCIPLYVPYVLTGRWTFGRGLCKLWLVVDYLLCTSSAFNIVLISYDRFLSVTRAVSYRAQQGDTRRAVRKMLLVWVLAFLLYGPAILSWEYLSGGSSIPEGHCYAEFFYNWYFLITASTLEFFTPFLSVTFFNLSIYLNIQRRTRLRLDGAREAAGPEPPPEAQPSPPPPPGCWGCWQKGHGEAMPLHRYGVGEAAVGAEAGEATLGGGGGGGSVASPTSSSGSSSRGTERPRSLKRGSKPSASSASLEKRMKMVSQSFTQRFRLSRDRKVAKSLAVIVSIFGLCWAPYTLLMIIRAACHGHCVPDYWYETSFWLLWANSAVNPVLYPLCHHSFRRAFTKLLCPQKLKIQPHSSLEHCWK
Sequence of Histamine H1 receptor (P31389 whole entry): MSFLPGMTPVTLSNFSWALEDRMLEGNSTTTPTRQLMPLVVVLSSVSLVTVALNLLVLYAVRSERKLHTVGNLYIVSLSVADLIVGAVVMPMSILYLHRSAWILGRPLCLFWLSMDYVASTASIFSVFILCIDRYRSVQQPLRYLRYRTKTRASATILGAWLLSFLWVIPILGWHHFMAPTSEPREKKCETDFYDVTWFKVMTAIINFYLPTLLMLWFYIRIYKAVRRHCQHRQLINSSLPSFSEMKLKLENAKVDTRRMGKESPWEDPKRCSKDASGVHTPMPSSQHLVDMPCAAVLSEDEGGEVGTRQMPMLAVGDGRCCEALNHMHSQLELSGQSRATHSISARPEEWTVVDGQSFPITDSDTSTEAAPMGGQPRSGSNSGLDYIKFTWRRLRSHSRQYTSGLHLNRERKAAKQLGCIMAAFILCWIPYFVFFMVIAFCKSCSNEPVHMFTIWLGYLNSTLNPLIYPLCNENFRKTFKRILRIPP
T3 sequence (P25021 whole entry, the tested form may be a part): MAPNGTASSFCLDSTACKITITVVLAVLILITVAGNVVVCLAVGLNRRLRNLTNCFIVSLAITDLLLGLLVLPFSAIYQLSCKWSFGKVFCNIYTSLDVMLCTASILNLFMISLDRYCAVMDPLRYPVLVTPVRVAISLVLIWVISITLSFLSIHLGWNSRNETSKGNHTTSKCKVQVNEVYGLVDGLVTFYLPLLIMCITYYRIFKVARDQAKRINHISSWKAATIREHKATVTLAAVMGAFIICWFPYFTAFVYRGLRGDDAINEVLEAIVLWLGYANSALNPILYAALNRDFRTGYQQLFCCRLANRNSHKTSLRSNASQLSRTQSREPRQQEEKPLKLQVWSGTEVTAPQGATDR
Sequence of Histamine H1 receptor (Homo sapiens) (P35367 whole entry, the tested form may be a part): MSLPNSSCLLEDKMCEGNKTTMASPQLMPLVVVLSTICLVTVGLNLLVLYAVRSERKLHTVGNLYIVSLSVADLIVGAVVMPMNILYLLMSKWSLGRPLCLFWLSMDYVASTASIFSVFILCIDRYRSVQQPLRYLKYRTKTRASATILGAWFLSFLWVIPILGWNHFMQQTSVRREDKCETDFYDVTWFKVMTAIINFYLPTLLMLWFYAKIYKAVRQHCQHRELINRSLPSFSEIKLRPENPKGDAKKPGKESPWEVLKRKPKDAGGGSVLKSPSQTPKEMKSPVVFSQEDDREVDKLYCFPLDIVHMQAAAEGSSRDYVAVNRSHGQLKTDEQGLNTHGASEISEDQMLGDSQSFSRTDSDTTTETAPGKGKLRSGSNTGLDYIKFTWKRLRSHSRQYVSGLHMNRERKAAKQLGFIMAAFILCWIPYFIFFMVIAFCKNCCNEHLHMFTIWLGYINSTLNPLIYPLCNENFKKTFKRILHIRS

Row | Structure (SMILES) | pKb (Histamine H3 receptor [1]) | Kb (Histamine H1 receptor) | pKb [3] | Intrinsic activity (Histamine H2 receptor [4]) | Efficacy [5] | Intrinsic activity (Histamine H3 receptor [7]) | Kb (Histamine H2 receptor [9]) | Intrinsic activity (Histamine H3 receptor [10]) | Intrinsic activity [12] | pEC50 (Histamine H2 receptor [13]) | pKb (Histamine H3 receptor [14]) | pKb (Histamine H2 receptor [15]) | pKb (Histamine H4 receptor [16]) | pD'2 [17] | also measured
1 | CC(CC(=O)/N=C(\N)NCCCc1ncn[nH]1)c1ccccc1 (stereo unspecified) | < 5 | 1480 nM | < 5 | 0.66 | 100% | -0.03 | 479 nM | – | – | – | – | – | – | – | EC50 (Histamine H2 receptor [2]): 100 nM; EC50 (Histamine H2 receptor [6]): 741 nM; pEC50 (Histamine H4 receptor [8]): inactive
2 | CC(CC(=O)/N=C(\N)NCCCc1ccncc1)c1ccccc1 (stereo unspecified) | < 5 | – | < 5 | 0 | – | -0.07 | 19100 nM | – | 0.12 | – | – | 5.54 | < 5 | 4.54 | pD2 [18]: 4.54
3 | Cc1nc(N)sc1CCCNC(=N)NC(=O)CC(C)c1ccccc1 (stereo unspecified) | – | – | – | – | – | – | > 31600 nM | – | – | – | – | – | – | < 4.5 | –
4 | CC(CC(=O)/N=C(\N)NCCCc1ccc(CN(C)C)o1)c1ccccc1 (stereo unspecified) | 5.92 | 3020 nM | < 5 | -0.12 | 0% | -0.64 | – | – | 0.04 | – | – | 6.52 | < 5 | – | Emax [25]: 68%
5 | CC(CC(=O)/N=C(\N)NCCCn1ccnc1)c1ccccc1 (stereo unspecified) | < 5 | 1120 nM | < 5 | – | – | -0.05 | > 31600 nM | – | – | – | – | < 5 | – | 4.16 | Emax [26]: 69%; Intrinsic activity (Histamine H4 receptor [27]): 0.77; EC50 (Histamine H4 receptor [8]): 1000 nM

The next lines start with results.

Row | pKb (Histamine H3 receptor [1]) | Kb (Histamine H1 receptor) | pKb [3] | Intrinsic activity (Histamine H2 receptor [4]) | Efficacy [5] | Intrinsic activity (Histamine H3 receptor [7]) | Kb (Histamine H2 receptor [9]) | Intrinsic activity (Histamine H3 receptor [10]) | Intrinsic activity [12] | pEC50 (Histamine H2 receptor [13]) | pKb (Histamine H3 receptor [14]) | pKb (Histamine H2 receptor [15]) | pKb (Histamine H4 receptor [16]) | pD'2 [17] | Structure (SMILES) | also measured
6 | – | – | < 5 | – | – | – | – | -0.24 | 0.03 | inactive | < 5 | – | – | – | CN/C(=N\C#N)NCCCNc1nccc(N)n1 | pEC50 (Histamine H4 receptor [11]): inactive
7 | < 5 | – | 5.34 | 0.3 | 26% | -0.17 | – | – | 0.21 | – | – | – | < 5 | – | CC(CC(=O)/N=C(\N)NCCCc1ccccn1)c1ccccc1 (stereo unspecified) | EC50 (Histamine H2 receptor [6]): 832 nM; EC50 (Histamine H2 receptor [19]): 195 nM
8 | – | – | < 5.3 | – | – | – | – | -0.47 | -0.01 | – | < 5 | – | – | – | Cc1nc(CCCCN/C(=N\C#N)NCCSc2ccccc2)c[nH]1 | Intrinsic activity (Histamine H2 receptor [20]): -0.05; EC50 (Histamine H2 receptor [13]): 16200 nM; pKb (Histamine H4 receptor [21]): 6.21; Intrinsic activity (Histamine H4 receptor [22]): -0.24
9 | – | – | – | – | – | – | – | – | – | inactive | – | – | – | – | CN/C(=N/C#N)NCCCCc1cnn[nH]1 | pEC50 (Histamine H4 receptor [11]): inactive; pEC50 [23]: inactive; pEC50 (Histamine H3 receptor [24]): inactive
10 | – | – | < 5 | – | – | – | – | -0.1 | 0.03 | inactive | < 5 | – | – | – | CN/C(=N\C#N)NCCCCNc1ccccn1 | pKb (Histamine H4 receptor [21]): < 5; Intrinsic activity (Histamine H4 receptor [22]): -0.11
